Assays:
[1] = biological target: B-Raf kinase (SEQ. ID NO: 2) (Homo sapiens (Human), UniProt P15056); experiment: Biochemical Assay for B-Raf (2); conditions: Table J, biochemical assay (2); read-out: BRAF (2)
Protocol: Biochemical Assay for B-Raf (2)
Activity of B-Raf kinase (SEQ. ID NO: 2) was determined spectroscopically using a coupled pyruvate kinase/lactate dehydrogenase assay that continuously monitors the ATP hydrolysis-dependent oxidation of NADH (e.g., Schindler et al., Science, 2000, 289, 1938-1942). Assays were conducted in 384-well plates (25 μL final volume) using 2 nM B-Raf (Sigma), 1.5 units pyruvate kinase, 2.1 units lactate dehydrogenase, 1 mM phosphoenol pyruvate, 0.7 mM NADH, 50 nM MEK (SignalChem), and 1 mM ATP in assay buffer (100 mM Tris, pH 7.5, 15 mM MgCl2, 0.5 mM DTT, 0.1% octyl-glucoside, 0.002% (w/v) BSA, and 0.002% Triton X-100). Inhibition of B-Raf was measured by adding serial diluted test compound (final assay concentration of 1% DMSO). A decrease in absorption at 340 nm was monitored hourly for 4 h at 30° C. on a multi-mode microplate reader (BioTek). The reaction rate was calculated using the 2 to 3 h time frame. The reaction rate at each concentration of compound was converted to percent inhibition using controls (i.e., reaction with no test compound and reaction with a known inhibitor) and IC50 values were calculated by fitting a four-parameter sigmoidal curve to the data using Prism (GraphPad software).

[2] = biological target: A-Raf kinase (SEQ. ID No: 1) (Homo sapiens (Human), UniProt P10398, Y301D/Y302D); experiment: Biochemical Assay for A-Raf (2); conditions: Table J, biochemical assay (2); read-out: ARAF (2)
Sequence of A-Raf kinase (SEQ. ID No: 1) (P10398 other isoform, or with tags, fused parts or gaps Y301D (already in the parent)/Y302D (already in the parent)): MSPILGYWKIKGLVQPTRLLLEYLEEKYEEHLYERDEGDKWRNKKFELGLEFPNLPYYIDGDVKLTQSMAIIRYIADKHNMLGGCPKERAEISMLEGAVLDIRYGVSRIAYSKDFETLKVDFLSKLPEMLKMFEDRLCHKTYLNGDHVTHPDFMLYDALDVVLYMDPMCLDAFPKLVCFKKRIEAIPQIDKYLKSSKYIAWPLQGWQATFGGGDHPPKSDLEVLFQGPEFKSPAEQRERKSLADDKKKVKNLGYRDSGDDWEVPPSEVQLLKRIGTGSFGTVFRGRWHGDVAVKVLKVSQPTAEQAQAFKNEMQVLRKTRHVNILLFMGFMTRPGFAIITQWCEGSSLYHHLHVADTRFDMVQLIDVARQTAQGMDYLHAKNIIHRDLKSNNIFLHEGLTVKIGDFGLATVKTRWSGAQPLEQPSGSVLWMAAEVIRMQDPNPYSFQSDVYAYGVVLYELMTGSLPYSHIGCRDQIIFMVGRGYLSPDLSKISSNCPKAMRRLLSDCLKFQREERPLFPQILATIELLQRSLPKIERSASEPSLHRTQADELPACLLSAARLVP
Protocol: Biochemical Assay for A-Raf (2)
Activity of A-Raf kinase (SEQ. ID No: 1) was determined spectroscopically using a coupled pyruvate kinase/lactate dehydrogenase assay that continuously monitors the ATP hydrolysis-dependent oxidation of NADH (e.g., Schindler et al., Science, 2000, 289, 1938-1942). Assays were conducted in 384-well plates (25 μL final volume) using 20 nM A-Raf (Eurofins), 1.5 units pyruvate kinase, 2.1 units lactate dehydrogenase, 1 mM phosphoenol pyruvate, 0.7 mM NADH, 100 nM MEK (SignalChem), and 1 mM ATP in assay buffer (100 mM Tris, pH 7.5, 15 mM MgCl2, 0.5 mM DTT, 0.1% octyl-glucoside, 0.002% (w/v) BSA, and 0.002% Triton X-100). Inhibition of A-Raf was measured by adding serial diluted test compound (final assay concentration of 1% DMSO). A decrease in absorption at 340 nm was monitored hourly for 4 h at 30° C. on a multi-mode microplate reader (BioTek). The reaction rate was calculated using the 3 to 4 h time frame. The reaction rate at each concentration of compound was converted to percent inhibition using controls (i.e., reaction with no test compound and reaction with a known inhibitor) and IC50 values were calculated by fitting a four-parameter sigmoidal curve to the data using Prism (GraphPad software).

[3] = biological target: B-Raf (V600E) (SEQ. ID NO: 4) kinase (Homo sapiens (Human), UniProt P15056, V600E); experiment: Biochemical Assay for B-Raf (V600E) (1); conditions: Table J, BRAF V600E, biochemical assay (1); read-out: BRAF VE (1)
Sequence of B-Raf (V600E) (SEQ. ID NO: 4) kinase (P15056 416-766 V600E): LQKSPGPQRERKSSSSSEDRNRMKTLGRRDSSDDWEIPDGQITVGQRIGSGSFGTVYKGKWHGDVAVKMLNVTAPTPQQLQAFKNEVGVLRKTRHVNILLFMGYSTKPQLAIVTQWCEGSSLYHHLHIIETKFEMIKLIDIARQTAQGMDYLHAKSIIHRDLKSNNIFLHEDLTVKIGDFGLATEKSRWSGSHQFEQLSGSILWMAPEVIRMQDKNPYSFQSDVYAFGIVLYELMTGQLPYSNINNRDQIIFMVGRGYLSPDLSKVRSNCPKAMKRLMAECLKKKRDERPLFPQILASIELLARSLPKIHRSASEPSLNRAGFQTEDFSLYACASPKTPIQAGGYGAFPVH
Method in brief: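 Coupled pyruvate kinase/lactate dehydrogenase assay: 0.03 nM B-Raf V600E, 30.1 nM MEK, 1 mM ATP, pH 7.5 Tris/MgCl2 buffer, 1% DMSO. NADH oxidation followed at 340 nm for 6 h at 30 °C; rate from 3–4 h converted to percent inhibition, IC50 by four-parameter fit.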

H2405 cells = experiment: H2405 Cell Proliferation Assay (1); assay type: cell-based; conditions: Homo sapiens, NCI-H2405
Method in brief: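 Viability was read by resazurin reduction (ex 540 nm, em 600 nm; 5-6 h with 40 μL of 440 μM stock) after 67-72 h compound exposure at 37 °C.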

Sequence of B-Raf kinase (SEQ. ID NO: 2) (P15056 416-766): as the sequence (P15056 416-766 V600E) above, with E185V counted along it

Row | SMILES | IC50 [1] [nM] | IC50 [2] [nM] | IC50 [3] [nM] | IC50 (H2405 cells) [nM]
1 | CNC(=O)c1cc(-c2cc(-c3cc(NC(=O)c4ccnc(C(C)(C)F)c4)ccc3F)ccn2)ccn1 [Example 479] | 100 to 500 | 100 to 500 |  | 
2 | CNC(=O)c1cc(-c2cc(-c3cc(F)cc(NC(=O)c4ccnc(C(C)(C)F)c4)c3F)ccn2)ccn1 [Example 475] | 1000 to 10000 | 1000 to 10000 |  | 
3 | Cc1ccc(NC(=O)c2ccnc(C(C)(C)F)c2)cc1-c1ccnc(-c2ccnc(C(=O)NC3CN(C)C3)c2)c1 [Example 450] | 100 to 500 | 1000 to 10000 |  | 
4 | Cc1ncc(NC(=O)c2ccnc(C(C)(F)F)c2)cc1-c1ccnc(-c2ccnc(NC(=O)C3CC3)c2)c1 [Example 466] | ≤ 100 | 500 to 1000 |  | 
5 | CNC(=O)c1cc(-c2cncc(-c3cc(NC(=O)c4ccnc(C(C)C)c4)ccc3C)c2)ncn1 [Example 446] | ≤ 100 | 1000 to 10000 |  | 
6 | CNC(=O)c1cc(-c2cc(-c3cc(NC(=O)c4ccnc(C(C)(C)F)c4)cc(F)c3C)ccn2)ccn1 [Example 480] | 100 to 500 | 1000 to 10000 |  | 
7 | CNC(=O)c1cc(-c2cc(-c3cc(NC(=O)c4ccnc(C5CC5)c4)cnc3C)ccn2)ccn1 [Example 462] | 100 to 500 | 1000 to 10000 |  | 
8 | CNC(=O)c1cc(-c2cc(-c3cc(NC(=O)c4ccnc(C(C)(C)F)c4)cc(F)c3F)ccn2)ccn1 [Example 478] | 100 to 500 | 1000 to 10000 |  | 
9 | CNC(=O)c1cc(-c2cc(-c3cc(NC(=O)c4ccnc(C(C)C)c4)cnc3C)ccn2)ccn1 [Example 465] | 100 to 500 | 1000 to 10000 |  | 
10 | Cc1ccc(NC(=O)c2ccnc(C(C)C)c2)cc1-c1ccnc(-c2ccnc(NC(=O)C3CC3)c2)c1 [Example 467] | ≤ 100 | 100 to 500 |  | 
11 | CNC(=O)c1cc(-c2cc(-c3cc(NC(=O)c4ccnc(C(C)(F)F)c4)cnc3C)ccn2)ccn1 [Example 463] | 100 to 500 | 1000 to 10000 |  | 
12 | CNC(=O)c1cc(-c2cc(-c3cc(NC(=O)c4ccnc(C5(C#N)CC5)c4)cnc3C)ccn2)ccn1 [Example 464] | 100 to 500 | 100 to 500 |  | 
13 | Cc1ccc(NC(=O)c2ccnc(C3(C#N)CC3)c2)cc1-c1ccnc(-c2ccnc(NC(=O)C3CC3)c2)c1 [Example 457] | ≤ 100 | 100 to 500 |  | 
14 | CNC(=O)c1cc(-c2cc(-c3cc(NC(=O)c4ccnc(C(C)(C)F)c4)ccc3C(F)(F)F)ccn2)ccn1 [Example 471] | 1000 to 10000 | 100 to 500 |  | 
15 | CNC(=O)c1cc(-c2cc(-c3cc(NC(=O)c4ccnc(C5CC5)c4)ccc3C)ccn2)ccn1 [Example 460] | ≤ 100 | 500 to 1000 |  | 
16 | Cc1ccc(NC(=O)c2ccnc(C(C)(C)F)c2)cc1-c1ccnc(-c2ccnc(C(=O)NCCN(C)C)c2)c1 [Example 453] | ≤ 100 | 1000 to 10000 |  | 
17 | Cc1ncc(NC(=O)c2ccnc(C(C)C)c2)cc1-c1ccnc(-c2ccnc(NC(=O)C3CC3)c2)c1 [Example 468] | ≤ 100 | 100 to 500 |  | 
18 | CNC(=O)c1cc(-c2cc(-c3cc(NC(=O)c4ccnc(C(C)(C)F)c4)c(F)cc3F)ccn2)ccn1 [Example 482] | 100 to 500 | 500 to 1000 |  | 
19 | Cc1ncc(NC(=O)c2ccnc(C(C)(C)F)c2)cc1-c1ccnc(-c2ccnc(NC(=O)C3CC3)c2)c1 [Example 454] | ≤ 100 | 500 to 1000 |  | 
20 | CNC(=O)c1cc(-c2cc(-c3cc(NC(=O)c4ccnc(C(C)(C)F)c4)ccn3)ccn2)ccn1 [Example 481] | 1000 to 10000 | 1000 to 10000 |  | 
21 | CNC(=O)c1cc(-c2cc(-c3cc(NC(=O)c4cnnc(C(F)(F)F)c4)ccc3C)ccn2)ccn1 [Example 477] | ≤ 100 | 1000 to 10000 |  | 
22 | Cc1ncc(NC(=O)c2ccnc(C(C)(C)C#N)c2)cc1-c1cccc(-c2cnc3ccccn23)c1 [Example 407] |  |  | 100 to 500 | 500 to 1000
23 | Cc1ncc(NC(=O)c2ccnc(C(C)(C)F)c2)cc1-c1cncc(-c2cc(NC(=O)C3CC3)ncn2)c1 [Example 406] |  |  | ≤ 100 | ≤ 100

Further lines, results first:

Row | IC50 [1] [nM] | IC50 [2] [nM] | IC50 [3] [nM] | IC50 (H2405 cells) [nM] | SMILES
24 | 100 to 500 | 1000 to 10000 |  |  | CNC(=O)c1cc(-c2cc(-c3cc(NC(=O)c4ccnc(C(C)(C)F)c4)ccc3C)cnn2)ccn1 [Example 473]
25 | ≤ 100 | 1000 to 10000 |  |  | Cc1ccc(NC(=O)c2ccnc(C(C)(C)F)c2)cc1-c1ccnc(-c2ccnc(C(=O)NCC#N)c2)c1 [Example 451]
26 | ≤ 100 | 100 to 500 |  |  | Cc1ccc(NC(=O)c2ccnc(C(C)(C)F)c2)cc1-c1ccnc(-c2ccnc(NC(=O)C3CC3)c2)c1 [Example 455]
27 | ≤ 100 | 500 to 1000 |  |  | CNC(=O)c1cc(-c2cc(-c3cc(NC(=O)c4ccnc(C(C)(C)F)c4)ccc3C)ncn2)ccn1 [Example 474]
28 | 100 to 500 | 1000 to 10000 |  |  | CNC(=O)c1cc(-c2cc(-c3cc(NC(=O)c4ccnc(C(C)(C)F)c4)ccc3C)cc(C)n2)ccn1 [Example 470]
29 | ≤ 100 | 1000 to 10000 |  |  | CNC(=N)c1cc(-c2cc(-c3cc(NC(=O)c4ccnc(C(C)(C)F)c4)ccc3C)ccn2)ccn1 [Example 452]
30 | ≤ 100 | 1000 to 10000 |  |  | CNC(=O)c1cc(-c2cc(-c3cc(NC(=O)c4ccnc(C(C)(C)F)c4)ccc3C)c(F)cn2)ccn1 [Example 469]
31 | ≤ 100 | 500 to 1000 |  |  | CNC(=O)c1cc(-c2cncc(-c3cc(NC(=O)c4ccnc(C(C)C)c4)ccc3C)c2)ccn1 [Example 445]
32 | ≤ 100 | 100 to 500 |  |  | Cc1ccc(NC(=O)c2ccnc(C(C)(F)F)c2)cc1-c1ccnc(-c2ccnc(NC(=O)C3CC3)c2)c1 [Example 459]
33 | ≤ 100 | 500 to 1000 |  |  | CNC(=O)c1cc(-c2cc(-c3cc(NC(=O)c4ccnc(C(C)(F)F)c4)ccc3C)ccn2)ccn1 [Example 441]
34 | ≤ 100 | 1000 to 10000 |  |  | CNC(=O)c1cc(-c2cncc(-c3cc(NC(=O)c4ccnc(C(C)(C)C#N)c4)ccc3C)c2)ccn1 [Example 442]
35 | ≤ 100 | 100 to 500 |  |  | Cc1ccc(NC(=O)c2ccnc(C(C)(C)C#N)c2)cc1-c1ccnc(-c2ccnc(NC(=O)C3CC3)c2)c1 [Example 456]
36 | ≤ 100 | 1000 to 10000 |  |  | CNC(=O)c1cc(-c2cncc(-c3cc(NC(=O)c4ccnc(C(C)(F)F)c4)ccc3C)c2)ncn1 [Example 439]
37 | ≤ 100 | 500 to 1000 |  |  | Cc1ccc(NC(=O)c2ccnc(C(C)(C)F)c2)cc1-c1ccnc(-c2ccnc(C(N)=O)c2)c1 [Example 476]
38 |  |  | ≤ 100 | 100 to 500 | Cc1ccc(NC(=O)c2ccnc(C(C)(C)F)c2)cc1-c1cncc(-c2cc(N)ncn2)c1 [Example 411]
39 |  |  | ≤ 100 | 100 to 500 | CNC(=O)c1cc(-c2cncc(-c3cc(NC(=O)c4ccnc(C(C)(C)F)c4)c(F)cc3C)c2)ccn1 [Example 408]
40 |  |  | ≤ 100 | 100 to 500 | Cc1ccc(NC(=O)c2ccnc(C(C)(C)C#N)c2)cc1-c1cncc(-c2cc(N)ncn2)c1 [Example 422]
41 |  |  | ≤ 100 | ≤ 100 | COC(=O)Nc1cc(-c2cncc(-c3cc(NC(=O)c4ccnc(C(C)(C)F)c4)ccc3C)c2)ncn1 [Example 425]
42 |  |  | ≤ 100 | ≤ 100 | CNC(=O)c1cc(-c2cncc(-c3cc(NC(=O)c4ccnc(C(C)(C)F)c4)ccc3C)c2)ccn1 [Example 413]
43 |  |  | ≤ 100 | ≤ 100 | COC(=O)Nc1cc(-c2cncc(-c3cc(NC(=O)c4ccnc(C(C)(C)F)c4)ccc3C)c2)ccn1 [Example 435]
44 |  |  | ≤ 100 | ≤ 100 | Cc1cc(F)c(NC(=O)c2ccnc(C(C)(C)C#N)c2)cc1-c1cncc(-c2ccnc(NC(=O)C3CC3)c2)c1 [Example 418]
